Test results reported in publication PMC11310889, “Ribosomal translation of fluorinated non-canonical amino acids for de novo biologically active fluorinated macrocyclic peptides” (Chemical Science, 2024).

Legend:
E. coli W3110 [1] = experiment: Scanning electron microscopy of cell morphology; type: cell-based, Escherichia coli; conditions: E. coli W3110 logarithmic-phase, 4 h treatment at 2 μM and 5 μM (Fig. 5B, S11)
Experimental: Thaw the previously preserved E. coli W3110 cells from the -80 °C freezer. […]
Scanning electron microscopy
Thaw the previously preserved E. coli W3110 cells from the -80°C freezer. Scrape a small amount and inoculate it into 1 mL of LB liquid medium. Incubate overnight in a 37°C shaker. The next day, inoculate the strain into fresh LB liquid medium at a 1:100 ratio and incubate at 37°C until the OD600 reaches approximately 0.47 to 0.53. Take 500 μL of E. coli W3110 cells, centrifuge for 10 min at 4000 rpm, and discard the supernatant. Resuspend the cells in 500 μL of PBS, then centrifuge again at 4000 rpm for 10 min and discard the supernatant. Dissolve various macrocyclic peptides in DMSO and dilute to the required concentration. Resuspend the untreated group in 500 μL of PBS.
For the peptide treatment group, resuspend in 495 μL of ddH2O, add 5 μL of 0.2 mM or 0.5 mM peptides, mix well, and let react for 4 h.
After the treament, spot 4 μL of the sample on plates. Perform the first ten-fold dilution and mix, then continue with the second to fifth ten-fold dilutions. Incubate the plates inverted overnight in a 37°C incubator. Scan and count the colonies. For the remaining 492 μL, centrifuge at 6100g for 10 min, discard the supernatant, add 500 μL of ddH2O, and let it stand for 15 min. Centrifuge again at 6100g for 10 min, discard the supernatant, and add 500 μL of ddH2O containing 2.5% glutaraldehyde. Resuspend and fix the cells overnight at 4°C. Centrifuge at 6100g for 10 min, remove the supernatant, and wash twice with ddH2O, letting it stand for 15 min each time, followed by centrifugation at 6100g for 10 min. Discard the supernatant. Dehydrate the sample with ethanol at concentration gradients of 30%, 60%, and 90%, without resuspension, centrifuging at 6100g for […]
10 min and discarding the supernatant after each step. Finally, use 100% ethanol, rest for 15 min, centrifuge at 6100g for 10 min, discard the supernatant, and repeat with 100% ethanol, leaving about 10 μL. Then the critical point was dried and sprayed with gold, and the images were observed by […]
Prediction of binding sites between peptides and the BAM complex
Firstly, the fpocket algorithm was used, a rapid method for pocket prediction based on the three-dimensional structure of BAM complex (PDB ID: 5AYW). This method establishes a grid surrounding the protein, positioning alpha spheres on grid points devoid of spatial conflicts with protein atoms, subsequently utilizing a clustering algorithm to ascertain whether these regions constitute potential binding pockets. Alpha spheres were designated with radii ranging from 3.4Å to 6.2Å, with a prerequisite of at least 15 alpha spheres for a region to be considered a pocket. […]
PepNN evaluated each amino acid for its potentiality as a peptide binding site. […]

E. coli W3110 [2] = experiment: Propidium iodide (PI) assay of membrane permeability; type: cell-based, Escherichia coli; conditions: E. coli W3110 logarithmic-phase, 15 min treatment with 5 μM peptide, PI 25 μg/mL 15 min (Fig. 5A)
Experimental: Propidium Iodide (PI) assay
Thaw the previously preserved E. coli W3110 cells from the -80 °C freezer. Scrape a small amount and inoculate it into 1 mL of LB liquid medium. Culture overnight in a 37°C shaker. Next day, inoculate the strain into fresh LB liquid medium at a 1:100 ratio and incubate at 37 °C until the OD600 reaches approximately 0.47 to 0.53. Take 100 μL of the E. coli W3110 cells and centrifuge for 2 min at 13,000 rpm. Discard the supernatant. For the untreated group, resuspend the cells in 100 μL of PBS. For the peptide treatment group, resuspend the cells in 99 μL of ddH2O and add 1 […]
μL of 0.5 mM of the different peptides. Mix thoroughly and let react for 15 min. After the treatment, take 80 μL of each sample and incubate with PI at a final concentration of 25 μg/mL for 15 min.
After incubation, wash the samples with the same amount of PBS, centrifuge, and resuspend at a 10-fold concentration. Observe the images using a Nikon Eclipse Ci-L Plus microscope. […]
Incubate overnight in a 37°C shaker. […]
Centrifuge again at
6100g for 10 min, discard the supernatant, and add 500 μL of ddH2O containing 2.5% glutaraldehyde. Resuspend and fix the cells overnight at 4°C. Centrifuge at 6100g for 10 min, remove the supernatant, and wash twice with ddH2O, letting it stand for 15 min each time, followed by centrifugation at 6100g for 10 min. Discard the supernatant. Dehydrate the sample with ethanol at concentration gradients of 30%, 60%, and 90%, without resuspension, centrifuging at 6100g for […]

Gram-negative bacteria = conditions: cited from earlier work
Source text: Furthermore, conjugating the R9 peptide to antimicrobial peptides enhances antibacterial activity, particularly increasing effectiveness against Gram-negative bacteria.[49–51] ...

## nona-arginine [R9, reference compound]
E. coli W3110 [1]
  morphological changes by scanning electron microscopy: slight shrinkage and partial rupture
E. coli W3110 [2]
  PI red fluorescence (cell membrane permeability): weak red fluorescence
Gram-negative bacteria
  anti-Gram-negative bacterial activity: low anti-Gram-negative bacterial activity
